Consider 3 compounds from US9364465B2, “Thiazolidinediones of omega-3 polyunsaturated acids as new insulin sensitizers for treating type2 diabetes” (Jiva Pharma, Inc., priority 2013, dated 2016).

Molecules are shown by their SMILES. Like-named read-outs stand apart in the source and are kept apart here.

The target of this experiment is T1, PPARγ (Homo sapiens, UniProt P37231).
T1 construct: expressed in transfected cells
T1 sequence (P37231 238-503 limits assumed): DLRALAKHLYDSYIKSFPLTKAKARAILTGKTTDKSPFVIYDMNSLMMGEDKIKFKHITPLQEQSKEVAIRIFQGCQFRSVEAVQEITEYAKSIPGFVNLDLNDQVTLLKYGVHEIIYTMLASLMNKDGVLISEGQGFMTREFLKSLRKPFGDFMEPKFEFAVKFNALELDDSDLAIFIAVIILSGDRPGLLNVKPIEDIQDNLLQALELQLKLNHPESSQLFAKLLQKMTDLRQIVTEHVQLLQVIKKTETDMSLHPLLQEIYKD
The experiment is described as follows: cell-based chimeric receptor transcription assay (PPAR ligand binding domain fused to GAL4 DNA binding domain, GAL4-regulated luciferase reporter). As to conditions: for RE: RE Conc. 16 μM. The protocol:
To determine if these compounds can activate PPARγ or the members of the PPAR family of nuclear receptors (PPARα and PPARδ), the ability of these compounds to activate PPAR receptors in a cell-based chimeric receptor transcription assay were tested. This is a standard nuclear receptor ligand activity assay that utilizes the ligand binding domain of the PPAR receptor fused to a heterologous GAL4 DNA binding domain. The transcriptional read-out is from a GAL4-regulated luciferase reporter. In this assay, compounds that activate the receptor cause an increase in luciferase activity measured in a luminometer. The data are shown in Table 1 below (average luciferase values from transcription assay).
In general terms: In a reporter assay the amount or activity of a reporter protein is the signal.

Setting [1] is: 1.02 μM conc., * above background.
[2] abbreviates: 2.6 μM conc., * above background.
Where [3] appears, read: 6.4 μM conc., * above background.
[4] abbreviates: 16 μM conc., * above background.
Where [5] appears, read: 40 μM conc., * above background.
Where [6] appears, read: calculated EC50, PPARγ agonist assay, Table 2, read-out: EC50.
[7] abbreviates: read-out: activation of PPARγ, potency (EC50).

By EC50 is commonly meant the concentration at which the effect is half-maximal. For the compound `CC/C=C\C/C=C\C/C=C\C/C=C\C/C=C\C/C=C\CCCC1SC(=O)NC1=O` (centres unmarked) [DHA-TZ, 5-((4Z,7Z,10Z,13Z,16Z,19Z)-docosa-4,7,10,13,16,19-hexaenyl)thiazolidine-2,4-dione], the RE is on record as 1354. The “average luciferase values from transcription assay” value (from here on “average luciferase values”) (0.16 μM conc.) was determined as 106. In addition, the “average luciferase values” value (0.41 μM conc.) came out at 145. Besides, under setting [1], the “average luciferase values” value was 167*. Under setting [2], the “average luciferase values” value is on record as 207*. Besides, the “average luciferase values” value under setting [3] was 623*. Also, the “average luciferase values” value under setting [4] was 1454*. Also, under setting [5], the “average luciferase values” value was 1868*. For the same compound, the EC50 under setting [6] was 9.7 µM. Further, the EC50 under setting [7] is 10 µM.

Consider `CC/C=C\C/C=C\C/C=C\C/C=C\C/C=C\CCCC(=O)OCC` [EPA Et Ester, eicosapentaenoic acid ethyl ester, reference compound], for which the EC50 under setting [6] is over 100 µM.

In the case of `CC/C=C\C/C=C\C/C=C\C/C=C\C/C=C\CCCCC1SC(=O)NC1=O` (centres unmarked) [EPA-TZ, 5-((5Z,8Z,11Z,14Z,17Z)-eicosa-5,8,11,14,17-pentaenyl)thiazolidine-2,4-dione], the RE stood at 1316. For the same compound, where the note is “0.16 μM conc.”, the “average luciferase values” value is 128. Moreover, under “0.41 μM conc.”, the “average luciferase values” value is listed as 123. For the same compound, under setting [1], the “average luciferase values” value is recorded as 164*. Further, the “average luciferase values” value under setting [2] is listed as 297*. The “average luciferase values” value under setting [3] is recorded as 705*. Under setting [4], the “average luciferase values” value is 1416*. The “average luciferase values” value under setting [5] is recorded as 48^. The half-maximal effective concentration (EC50) under setting [7] was determined as 12 µM.
